Reference: ChEMBL document CHEMBL5375999, “Discovery of a Dual Tubulin and Neuropilin-1 (NRP1) Inhibitor with Potent In Vivo Anti-Tumor Activity via Pharmacophore-based Docking Screening, Structure Optimization, and Biological Evaluation” (J Med Chem, 2023)
The source made the active and inactive calls. The rule behind the calls is not given here.

Assays:
[1] = Toxicity in BALB/c mouse xenografted with human PC-3 cells assessed as change body weight at 5 to 10 mg/kg, ip administered every 4 days for 20 days; assay type: organism-based; conditions: in vivo, 480 h, dose 5-10 mg/kg, time 20 day
[2] = system: PC-3; experiment: Induction of cell cycle arrest in human PC-3 cells assessed as accumulation of cells at G2/M phase at 0.5 uM by flow cytometry analysis (reference value: 3.24%); assay type: functional
[3] = system: PC-3; experiment: Induction of apoptosis in human PC-3 cells assessed as necrotic cells at 0.1 uM by Annexin-V FITC staining based flow cytometry analysis (reference value: 0.059%); assay type: functional
[4] = system: PC-3; experiment: Antiangiogenesis activity in human PC-3 cells assessed as appearance of scattered cells at 0.1 to 12.5 uM incubated for 8 to 15 hrs by matrigel based inverted microscopic analysis; assay type: functional, cell-based; conditions: dose 0.1-12.5 µM, time 8-15 hrs
[5] = target: Cyclin-dependent kinase 7 (Homo sapiens, UniProt P50613); experiment: Inhibition of CDK7 (unknown origin)
Sequence of Cyclin-dependent kinase 7 (P50613 whole entry): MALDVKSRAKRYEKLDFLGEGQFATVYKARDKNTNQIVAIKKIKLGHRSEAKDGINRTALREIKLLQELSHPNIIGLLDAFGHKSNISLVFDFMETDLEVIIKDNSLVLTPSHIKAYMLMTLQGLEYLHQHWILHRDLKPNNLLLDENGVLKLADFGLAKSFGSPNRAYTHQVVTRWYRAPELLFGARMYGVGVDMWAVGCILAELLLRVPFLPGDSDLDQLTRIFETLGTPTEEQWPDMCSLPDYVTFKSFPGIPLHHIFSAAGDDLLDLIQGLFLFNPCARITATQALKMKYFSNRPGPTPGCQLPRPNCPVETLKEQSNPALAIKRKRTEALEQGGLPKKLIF

[6] = system: PC-3; experiment: Induction of apoptosis in human PC-3 cells assessed as early apoptotic cells at 0.5 uM by Annexin-V FITC staining based flow cytometry analysis (reference value: 1.51%); assay type: functional
[7] = system: PC-3; experiment: Antitumor activity against human PC-3 cells xenografted in BALB/c nude mouse assessed as reduction in tumor weight at 5 to 10 mg/kg, ip administered every 4 days for 20 days; assay type: functional, organism-based; conditions: dose 5-10 mg/kg, time 20.0 day
[8] = Cytotoxicity against human PrEC cells assessed as inhibition of cell viability incubated for 48 hrs by MTT assay; assay type: toxicity, cell-based
[9] = target: Activin receptor type-2A (Homo sapiens, UniProt P27037); experiment: Inhibition of ACVR2 (unknown origin)
Sequence of Activin receptor type-2A (P27037 whole entry): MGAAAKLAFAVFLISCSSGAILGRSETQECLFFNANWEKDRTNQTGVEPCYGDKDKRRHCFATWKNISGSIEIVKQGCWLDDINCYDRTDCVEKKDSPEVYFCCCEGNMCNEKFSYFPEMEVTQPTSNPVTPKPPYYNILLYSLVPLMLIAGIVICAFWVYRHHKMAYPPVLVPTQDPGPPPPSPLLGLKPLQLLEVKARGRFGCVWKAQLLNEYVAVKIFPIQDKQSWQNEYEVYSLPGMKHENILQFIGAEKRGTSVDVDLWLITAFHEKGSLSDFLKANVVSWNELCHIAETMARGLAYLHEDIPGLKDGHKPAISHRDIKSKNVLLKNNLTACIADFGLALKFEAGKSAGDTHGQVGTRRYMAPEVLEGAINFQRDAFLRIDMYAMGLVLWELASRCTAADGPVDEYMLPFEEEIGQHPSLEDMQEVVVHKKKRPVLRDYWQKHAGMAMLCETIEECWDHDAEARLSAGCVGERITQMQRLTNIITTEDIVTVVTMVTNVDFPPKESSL

[10] = Tmax in Sprague-Dawley rat at 1.5 mg/kg, po measured upto 24 hrs by LC-MS/MS analysis; assay type: ADME, organism-based; conditions: in vivo
[11] = target: Serine/threonine-protein kinase ICK (Homo sapiens, UniProt Q9UPZ9); experiment: Inhibition of ICK (unknown origin)
Sequence of Serine/threonine-protein kinase ICK (Q9UPZ9 whole entry): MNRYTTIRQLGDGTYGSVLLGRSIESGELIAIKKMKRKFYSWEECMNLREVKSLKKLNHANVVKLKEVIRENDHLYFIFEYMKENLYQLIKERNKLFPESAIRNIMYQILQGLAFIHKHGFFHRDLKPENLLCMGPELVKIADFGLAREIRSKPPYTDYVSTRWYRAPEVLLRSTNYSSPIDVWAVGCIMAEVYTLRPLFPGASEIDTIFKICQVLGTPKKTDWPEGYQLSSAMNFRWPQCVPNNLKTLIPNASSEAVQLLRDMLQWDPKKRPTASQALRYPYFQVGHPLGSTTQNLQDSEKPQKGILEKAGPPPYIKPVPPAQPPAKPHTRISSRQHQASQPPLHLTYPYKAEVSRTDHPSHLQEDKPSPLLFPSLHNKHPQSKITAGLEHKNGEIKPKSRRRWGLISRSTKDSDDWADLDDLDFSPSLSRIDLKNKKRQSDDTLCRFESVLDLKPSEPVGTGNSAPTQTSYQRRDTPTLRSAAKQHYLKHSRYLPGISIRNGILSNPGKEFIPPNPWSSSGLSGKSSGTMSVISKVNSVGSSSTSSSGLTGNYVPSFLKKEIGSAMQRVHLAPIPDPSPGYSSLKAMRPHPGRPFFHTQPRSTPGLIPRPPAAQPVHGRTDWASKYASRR

[12] = system: PC-3; experiment: Induction of cell cycle arrest in human PC-3 cells assessed as G0/G1 phase cells at 0.1 uM by flow cytometry analysis (reference value: 94.76%); assay type: functional
[13] = target: T1, Tubulin (Homo sapiens) (UniProt P68371+Q9H4B7+P0DPH7+P68366+Q13509+Q71U36+P04350+Q3ZCM7+P07437+P68363+Q9BQE3+Q6PEY2+Q13885+Q9BVA1+Q9BUF5); experiment: Inhibition of tubulin polymerization in human PC-3 cells assessed as microtubule destruction at 2.5 to 12.5 uM incubated for 48 hrs by immunofluorescence assay; assay type: cell-based; conditions: dose 2.5-12.5 µM
[14] = system: PC-3; experiment: Induction of cell cycle arrest in human PC-3 cells assessed as accumulation of cells at G2/M phase at 0.1 uM by flow cytometry analysis (reference value: 3.24%); assay type: functional
[15] = target: Vascular endothelial growth factor A, long form (Homo sapiens, UniProt P15692); experiment: Inhibition of VEGF (unknown origin)
Sequence of Vascular endothelial growth factor A, long form (P15692 whole entry): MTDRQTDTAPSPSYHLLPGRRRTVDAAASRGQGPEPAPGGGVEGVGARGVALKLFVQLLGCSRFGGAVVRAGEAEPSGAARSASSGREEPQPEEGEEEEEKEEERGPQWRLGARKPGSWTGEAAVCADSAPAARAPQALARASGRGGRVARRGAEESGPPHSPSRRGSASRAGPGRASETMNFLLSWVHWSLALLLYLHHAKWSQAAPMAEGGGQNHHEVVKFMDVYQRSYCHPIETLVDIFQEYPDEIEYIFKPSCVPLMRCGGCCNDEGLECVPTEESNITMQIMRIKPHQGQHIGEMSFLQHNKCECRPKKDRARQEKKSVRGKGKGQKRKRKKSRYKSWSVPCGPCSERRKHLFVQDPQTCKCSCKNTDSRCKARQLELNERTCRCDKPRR

[16] = system: PC-3; experiment: Induction of apoptosis in human PC-3 cells assessed as late apoptotic cells at 2.5 uM by Annexin-V FITC staining based flow cytometry analysis (reference value: 1.67%); assay type: functional
[17] = target: T1, Tubulin (Homo sapiens); experiment: Inhibition of tubulin polymerization in human PC-3 cells assessed as increase in microtubule dispersion incubated for 48 hrs by immunofluorescence assay; assay type: cell-based; conditions: dose 0.1-12.5 µM
[18] = Toxicity in BALB/c mouse xenografted with human PC-3 cells assessed as change in lung morphology at 5 to 10 mg/kg, ip administered every 4 days for 20 days by H and E staining based inverted microscopic assay; assay type: organism-based; conditions: in vivo, 480 h, dose 5-10 mg/kg, time 20 day
[19] = target: Ankyrin repeat and protein kinase domain-containing protein 1 (Homo sapiens, UniProt Q8NFD2); experiment: Inhibition of ANKK1 (unknown origin)
Sequence of Ankyrin repeat and protein kinase domain-containing protein 1 (Q8NFD2 whole entry, the tested form may be a part): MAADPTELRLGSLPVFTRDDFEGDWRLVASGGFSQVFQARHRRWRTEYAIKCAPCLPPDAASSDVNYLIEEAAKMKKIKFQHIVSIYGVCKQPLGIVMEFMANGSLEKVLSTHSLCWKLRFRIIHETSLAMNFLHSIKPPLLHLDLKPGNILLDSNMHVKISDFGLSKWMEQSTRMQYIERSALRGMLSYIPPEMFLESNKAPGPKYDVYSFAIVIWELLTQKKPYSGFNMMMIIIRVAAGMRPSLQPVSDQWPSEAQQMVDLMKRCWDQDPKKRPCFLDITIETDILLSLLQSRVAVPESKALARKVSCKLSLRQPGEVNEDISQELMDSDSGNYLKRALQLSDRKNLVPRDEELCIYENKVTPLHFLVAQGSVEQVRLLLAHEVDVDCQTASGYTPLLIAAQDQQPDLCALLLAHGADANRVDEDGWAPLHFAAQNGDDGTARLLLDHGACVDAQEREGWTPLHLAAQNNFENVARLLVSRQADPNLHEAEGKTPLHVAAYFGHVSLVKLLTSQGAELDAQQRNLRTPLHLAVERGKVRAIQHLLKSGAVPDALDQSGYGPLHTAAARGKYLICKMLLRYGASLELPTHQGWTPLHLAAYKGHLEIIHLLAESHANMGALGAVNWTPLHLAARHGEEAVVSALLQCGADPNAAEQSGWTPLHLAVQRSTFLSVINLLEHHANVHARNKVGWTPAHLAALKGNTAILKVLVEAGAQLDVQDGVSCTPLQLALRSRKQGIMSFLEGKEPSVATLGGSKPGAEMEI

[20] = system: PC-3; experiment: Induction of cell cycle arrest in human PC-3 cells assessed as accumulation of cells at G2/M phase at 2.5 uM by flow cytometry analysis (reference value: 3.24%); assay type: functional
[21] = system: CWR22R; experiment: Cytotoxicity against human 22Rv1 cells assessed as inhibition of cell viability incubated for 48 hrs by MTT assay; assay type: functional, cell-based
[22] = target: Serine/threonine-protein kinase pim-1 (Homo sapiens, UniProt P11309); experiment: Inhibition of PIM1 (unknown origin)
Sequence of Serine/threonine-protein kinase pim-1 (P11309 whole entry): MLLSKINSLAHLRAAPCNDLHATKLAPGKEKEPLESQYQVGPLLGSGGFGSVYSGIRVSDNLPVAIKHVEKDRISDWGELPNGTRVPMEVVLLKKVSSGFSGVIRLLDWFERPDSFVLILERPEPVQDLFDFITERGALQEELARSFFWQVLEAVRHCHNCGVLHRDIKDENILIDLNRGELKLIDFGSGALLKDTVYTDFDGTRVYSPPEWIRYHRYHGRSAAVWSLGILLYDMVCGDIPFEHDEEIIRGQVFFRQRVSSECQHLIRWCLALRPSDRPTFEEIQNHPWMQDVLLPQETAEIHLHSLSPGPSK

[23] = system: HUVEC; experiment: Antiinvasive activity against HUVECs at 0.1 to 12.5 uM incubated for 24 hrs by crystal violet staining based optical microscopic analysis; assay type: functional, cell-based; conditions: Homo sapiens, dose 0.1-12.5 µM
[24] = target: Tyrosine-protein kinase Lck (Homo sapiens, UniProt P06239); experiment: Inhibition of LCK (unknown origin)
Sequence of Tyrosine-protein kinase Lck (P06239 whole entry): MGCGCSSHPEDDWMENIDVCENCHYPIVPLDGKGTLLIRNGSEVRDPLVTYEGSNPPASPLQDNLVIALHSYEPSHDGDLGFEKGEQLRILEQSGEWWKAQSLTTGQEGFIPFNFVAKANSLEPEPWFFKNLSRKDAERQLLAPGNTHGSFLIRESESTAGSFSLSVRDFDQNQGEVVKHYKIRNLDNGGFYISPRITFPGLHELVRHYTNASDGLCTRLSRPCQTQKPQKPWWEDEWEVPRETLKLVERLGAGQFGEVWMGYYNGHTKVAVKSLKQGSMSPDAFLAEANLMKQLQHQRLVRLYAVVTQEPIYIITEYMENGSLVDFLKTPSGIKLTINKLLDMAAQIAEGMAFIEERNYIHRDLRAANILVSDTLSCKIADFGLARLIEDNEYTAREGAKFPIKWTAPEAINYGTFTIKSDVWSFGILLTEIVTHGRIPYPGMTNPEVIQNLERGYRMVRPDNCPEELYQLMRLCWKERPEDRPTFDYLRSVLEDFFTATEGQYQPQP

[25] = system: PC-3; experiment: Antiangiogenesis activity in human PC-3 cells assessed as inhibition of tube formation incubated for 8 to 15 hrs by matrigel based inverted microscopic analysis; assay type: functional, cell-based; conditions: dose 0.1-12.5 µM, time 8-15 hrs
[26] = system: PC-3; experiment: Antitumor activity against human PC-3 cells xenografted in BALB/c nude mouse assessed as reduction in tumor volume at 5 to 10 mg/kg, ip administered every 4 days for 20 days; assay type: functional, organism-based; conditions: dose 5-10 mg/kg, time 20.0 day
[27] = system: PC-3; experiment: Induction of cell cycle arrest in human PC-3 cells assessed as S phase cells at 0.5 uM by flow cytometry analysis (reference value: 2%); assay type: functional
[28] = target: Cyclin-dependent kinase 8 (Homo sapiens, UniProt P49336); experiment: Inhibition of CDK8 (unknown origin)
[29] = target: Neuropilin-2 (Homo sapiens, UniProt O60462); experiment: Inhibition of NRP2 (unknown origin)
Sequence of Neuropilin-2 (O60462 whole entry): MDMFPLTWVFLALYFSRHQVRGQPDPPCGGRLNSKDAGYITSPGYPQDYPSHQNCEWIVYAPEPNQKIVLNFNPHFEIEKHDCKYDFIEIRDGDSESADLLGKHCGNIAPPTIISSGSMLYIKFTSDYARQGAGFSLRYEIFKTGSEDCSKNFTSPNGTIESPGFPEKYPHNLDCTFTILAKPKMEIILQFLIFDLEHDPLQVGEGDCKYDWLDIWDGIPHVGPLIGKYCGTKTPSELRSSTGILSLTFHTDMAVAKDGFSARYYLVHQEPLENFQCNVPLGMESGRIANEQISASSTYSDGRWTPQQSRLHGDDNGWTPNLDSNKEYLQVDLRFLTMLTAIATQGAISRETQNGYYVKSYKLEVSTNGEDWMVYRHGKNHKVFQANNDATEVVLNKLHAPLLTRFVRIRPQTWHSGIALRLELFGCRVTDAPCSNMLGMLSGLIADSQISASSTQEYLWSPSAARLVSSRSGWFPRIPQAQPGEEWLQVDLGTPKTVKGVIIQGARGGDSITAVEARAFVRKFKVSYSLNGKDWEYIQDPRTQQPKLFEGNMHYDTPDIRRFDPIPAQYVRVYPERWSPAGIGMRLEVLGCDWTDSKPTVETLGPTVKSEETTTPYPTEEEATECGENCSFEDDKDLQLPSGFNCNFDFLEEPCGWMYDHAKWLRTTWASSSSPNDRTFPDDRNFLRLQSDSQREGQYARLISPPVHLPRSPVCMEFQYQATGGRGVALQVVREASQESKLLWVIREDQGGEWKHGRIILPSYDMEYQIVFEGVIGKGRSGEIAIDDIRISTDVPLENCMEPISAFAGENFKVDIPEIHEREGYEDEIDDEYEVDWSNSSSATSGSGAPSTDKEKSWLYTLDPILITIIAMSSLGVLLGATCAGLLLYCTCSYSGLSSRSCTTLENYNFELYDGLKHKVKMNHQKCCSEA

[30] = system: PC-3; experiment: Induction of cell cycle arrest in human PC-3 cells assessed as G0/G1 phase cells at 2.5 uM by flow cytometry analysis (reference value: 94.76%); assay type: functional
[31] = system: PC-3; experiment: Induction of apoptosis in human PC-3 cells assessed as early apoptotic cells at 0.1 uM by Annexin-V FITC staining based flow cytometry analysis (reference value: 1.51%); assay type: functional
[32] = Toxicity in BALB/c mouse xenografted with human PC-3 cells assessed as change in liver morphology at 5 to 10 mg/kg, ip administered every 4 days for 20 days by H and E staining based inverted microscopic assay; assay type: organism-based; conditions: in vivo, 480 h, dose 5-10 mg/kg, time 20 day
[33] = target: T1, Tubulin (Homo sapiens); experiment: Inhibition of tubulin polymerization in human PC-3 cells assessed as appearance of blurred nucleus at 2.5 to 12.5 uM incubated for 48 hrs by immunofluorescence assay; assay type: cell-based; conditions: dose 2.5-12.5 µM
[34] = target: Tyrosine-protein kinase Blk (Homo sapiens, UniProt P51451); experiment: Inhibition of BLK (unknown origin)
Sequence of Tyrosine-protein kinase Blk (P51451 whole entry): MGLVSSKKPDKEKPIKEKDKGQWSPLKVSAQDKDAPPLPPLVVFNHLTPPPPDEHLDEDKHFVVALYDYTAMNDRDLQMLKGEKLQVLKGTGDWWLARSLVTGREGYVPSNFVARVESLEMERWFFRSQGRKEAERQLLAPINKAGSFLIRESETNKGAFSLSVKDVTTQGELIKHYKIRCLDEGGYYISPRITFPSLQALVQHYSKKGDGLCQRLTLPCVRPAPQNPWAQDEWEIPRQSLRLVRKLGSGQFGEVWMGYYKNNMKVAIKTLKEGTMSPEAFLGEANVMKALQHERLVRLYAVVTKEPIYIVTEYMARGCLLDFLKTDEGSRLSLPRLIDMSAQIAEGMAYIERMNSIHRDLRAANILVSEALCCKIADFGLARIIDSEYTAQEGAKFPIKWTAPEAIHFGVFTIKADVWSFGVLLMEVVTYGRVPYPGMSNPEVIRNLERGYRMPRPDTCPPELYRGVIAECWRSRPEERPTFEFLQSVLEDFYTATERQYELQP

[35] = system: PC-3; experiment: Induction of apoptosis in human PC-3 cells assessed as increase in cleaved caspase-3 expression at 0.5 to 12.5 uM incubated for 48 hrs by Western blotting analysis; assay type: functional, cell-based; conditions: dose 0.5-12.5 µM

## COc1ccc(/C=C\c2cc(OC)c(OC)c(OC)c2)cc1NC(=O)CCC(=O)N[C@@H](CCCNC(=N)N)C(=O)O
[1]
  Activity: Non-Toxic
[2]
  Activity: 8.96%
[3]
  Activity: 0.064%
[4]
  Activity: Active
[5]
  IC50: > 10 µM
[6]
  Activity: 2.95%
[7]
  Activity: Active
[8]
  IC50 at 48 h: > 10 µM
[9]
  IC50: > 10 µM
[10]
  Tmax: 30 min
[11]
  IC50: > 10 µM
[12]
  Activity: 93.57%
[13]
  inhibition: Active
[14]
  Activity: 4.48%
[15]
  IC50: > 10 µM
[16]
  Activity: 5.6%
[17]
  inhibition: Dose-Dependent Effect
[18]
  Activity: Non-Toxic
[19]
  IC50: > 10 µM
[20]
  Activity: 11.58%
[21]
  Activity: Active
[22]
  IC50: > 10 µM
[23]
  Activity: Active
[24]
  IC50: > 10 µM
[25]
  Activity: Dose-Dependent Effect
[26]
  Activity: Active
[27]
  Activity: 6.01%
[28]
  IC50: > 10 µM
[29]
  IC50: > 10 µM
[30]
  Activity: 84.75%
[31]
  Activity: 1.84%
[32]
  Activity: Non-Toxic
[33]
  inhibition: Active
[34]
  IC50: > 10 µM
[35]
  Activity: Active
